According to article PMC6265310, “Purification, Characterization and in vitro Evaluation of Polymyxin A From Paenibacillus dendritiformis: An Underexplored Member of the Polymyxin Family” (Frontiers in Microbiology, 2018):
Converted amounts (≈) assume the structure as drawn. Read-outs that look alike come from different tables or passages of the source. Where a SMILES comes first, the peptide text is derived from it. Bridges are numbered along the chain shown (N, C = ends). [ ]: non-standard residue; d: D form. The star is where a group is joined. X1 = CC[C@H](C)CCCCC(=O)*; dDab = NCC[C@@H](N)C(=O)O; Dab = NCC[C@H](N)C(=O)O

Key:
[1] = test system: Pseudomonas aeruginosa ATCC 27853; settings: Pseudomonas aeruginosa ATCC 27853
[2] = test system: Bacillus subtilis ATCC 6633; settings: Bacillus subtilis ATCC 6633
[3] = test system: Vibrio parahaemolyticus ATCC17802
[4] = test system: human embryonic kidney cell line (HEK293 ATCC CRL-1573); assay type: cell-based
Protocol: (§1) 3-(4,5-dimethylthiazol-2-yl)-2,5-diphenyltetrazolium bromide (MTT) assay was employed to examine the cytotoxicity against human leukemic monocyte cell line (THP-1 ATCC TIB-202) and human embryonic kidney cell line (HEK293 ATCC CRL-1573) as explained by [Kaur et al. (2017)]. Toxicity of both compounds was compared with polymyxin B and colistin at concentrations ranging from 62.5 to1000 μg/ml.

[5] = test system: human leukemic monocyte cell line (THP-1 ATCC TIB-202); assay type: cell-based
Protocol: as §1

[6] = test system: Klebsiella pneumoniae ATCC 29665; settings: Klebsiella pneumoniae ATCC 29665
[7] = test system: Vibrio cholerae MTCC 3906
[8] = test system: Escherichia coli ATCC 35218; settings: Escherichia coli ATCC 35218
[9] = test system: Escherichia coli ATCC 25922; settings: Escherichia coli ATCC 25922
[10] = test system: Acinetobacter baumannii ATCC 19606; settings: Acinetobacter baumannii ATCC 19606; Ca-MHB, 37°C, 20–24 h
[11] = test system: Enterococcus faecalis ATCC 51299; settings: Enterococcus faecalis ATCC 51299
[12] = test system: Klebsiella pneumoniae ATCC 700603; settings: Klebsiella pneumoniae ATCC 700603
[13] = test system: Staphylococcus aureus ATCC 25923; settings: Staphylococcus aureus ATCC 25923
[14] = test system: Klebsiella pneumoniae ATCC- BAA 2146; settings: Klebsiella pneumoniae ATCC- BAA 2146
[15] = test system: Klebsiella pneumoniae ATCC BAA1706; settings: Klebsiella pneumoniae ATCC BAA1706
[16] = test system: LPS (E. coli strain 055:B5 origin); assay type: binding; settings: read-out: Dissociation constant (Kd)
P. aeruginosa ATCC 27853 = test: Time-kill kinetics; assay type: cell-based; settings: P. aeruginosa ATCC 27853, 2xMIC
[17] = THP-1 cells, MTT, 62.5 to 1000 μg/ml

CC[C@H](C)CCCCC(=O)N[C@@H](CCN)C(=O)N[C@H](C(=O)N[C@H](CCN)C(=O)N[C@H]1CCNC(=O)[C@H]([C@@H](C)O)NC(=O)[C@H](CCN)NC(=O)[C@H](CCN)NC(=O)[C@H]([C@@H](C)O)NC(=O)[C@@H](CC(C)C)NC(=O)[C@H](CCN)NC1=O)[C@@H](C)O [P2, polymyxin A1] (X1-[Dab]T[dDab][Dab][Dab][dL]T[Dab][Dab]T; lactam 4-C) was tested, and the MIC (K. Pneumoniae GMCH10; GMCH10) was 1 µg/mL (≈ 0.864 µM), the MIC (E. coli 13425; 13425) was 1 µg/mL (≈ 0.864 µM) and the MIC (K. Pneumoniae GMCH13; GMCH13) was 0.5 µg/mL (≈ 0.432 µM). The MIC (E. coli 9062; 9062) was 1 µg/mL (≈ 0.864 µM), the MIC [1] was 1 µg/mL (≈ 0.864 µM) and the MIC (K. Pneumoniae 827; 827) was 1 µg/mL (≈ 0.864 µM). The MIC (P. aeruginosa PA1; PA1) was 2 µg/mL (≈ 1.73 µM), the MIC [2] was 8 µg/mL (≈ 6.91 µM) and the MIC (E. coli 14084; 14084) was 0.5 µg/mL (≈ 0.432 µM). For the same molecule, the MIC (K. Pneumoniae GMCH11; GMCH11) was 1 µg/mL (≈ 0.864 µM), the MIC [3] was 1 µg/mL (≈ 0.864 µM) and the MIC (K. Pneumoniae 1573; 1573) was 0.5 µg/mL (≈ 0.432 µM). For the same molecule, the MIC (A. baumannii AB1; AB1) was 1 µg/mL (≈ 0.864 µM), the MIC (E. coli 14504; 14504) was 0.5 µg/mL (≈ 0.432 µM) and the MIC (P. aeruginosa PA4; PA4) was 1 µg/mL (≈ 0.864 µM). The “toxicity ranking against HEK cells” value [4] was “highest toxicity among four compounds”, the IC50 [5] was 500 µg/mL (≈ 432 µM) and the MIC [6] was 1 µg/mL (≈ 0.864 µM). For the same molecule, the MIC [7] was 8 µg/mL (≈ 6.91 µM), the MIC [8] was 0.5 µg/mL (≈ 0.432 µM) and the MIC (K. Pneumoniae B8; B8) was 1 µg/mL (≈ 0.864 µM). For the same molecule, the MIC (E. coli 14363; 14363) was 0.5 µg/mL (≈ 0.432 µM), the MIC (A. baumannii GMCH 14; GMCH 14) was 1 µg/mL (≈ 0.864 µM) and the MIC [9] was 1 µg/mL (≈ 0.864 µM). For the same molecule, the MIC (P. aeruginosa GMCH06; GMCH06) was 1 µg/mL (≈ 0.864 µM), the MIC (E. coli 7210; 7210) was 1 µg/mL (≈ 0.864 µM) and the MIC [10] was 1 µg/mL (≈ 0.864 µM). For the same molecule, the MIC (P. aeruginosa PA3; PA3) was 2 µg/mL (≈ 1.73 µM), the MIC (A. baumannii GMCH18; GMCH18) was 0.5 µg/mL (≈ 0.432 µM) and the MIC [11] was >16 µg/mL. For the same molecule, the MIC (P. aeruginosa PA2; PA2) was 2 µg/mL (≈ 1.73 µM), the MIC (E. coli 3185; 3185) was 0.5 µg/mL (≈ 0.432 µM) and the MIC (P. aeruginosa PA6; PA6) was 2 µg/mL (≈ 1.73 µM). It also gave an MIC [12] of 1 µg/mL (≈ 0.864 µM), an MIC (P. aeruginosa PA5; PA5) of 2 µg/mL (≈ 1.73 µM) and an MIC (K. Pneumoniae GMCH 16; GMCH 16) of 0.5 µg/mL (≈ 0.432 µM). For the same molecule, the MIC [13] was >16 µg/mL, the MIC (A. baumannii AB2; AB2) was 1 µg/mL (≈ 0.864 µM) and the MIC (A. baumannii GMCH05; GMCH05) was 1 µg/mL (≈ 0.864 µM). For the same molecule, the MIC [14] was 1 µg/mL (≈ 0.864 µM), the MIC [15] was 1 µg/mL (≈ 0.864 µM) and the MIC (K. Pneumoniae GMCH12; GMCH12) was 1 µg/mL (≈ 0.864 µM). For the same molecule, the MIC (E. coli 7534; 7534) was 0.5 µg/mL (≈ 0.432 µM), the MIC (E. coli 7932; 7932) was 1 µg/mL (≈ 0.864 µM) and the MIC (K. Pneumoniae 1428; 1428) was 2 µg/mL (≈ 1.73 µM). The MIC (K. Pneumoniae GMCH04; GMCH04) was 0.5 µg/mL (≈ 0.432 µM).

With polymyxin B [PB, reference compound] the MIC (K. Pneumoniae GMCH10) was 1 µg/mL, the MIC (E. coli 13425) was 1 µg/mL and the MIC (K. Pneumoniae GMCH13) was 1 µg/mL. For the same molecule, the Kd [16] was 3.39 µM, the MIC (E. coli 9062) was 1 µg/mL and the MIC [1] was 1 µg/mL. It also gave an MIC (K. Pneumoniae 827) of 1 µg/mL, an MIC (P. aeruginosa PA1) of 2 µg/mL and an MIC [2] of 4 µg/mL. For the same molecule, the MIC (E. coli 14084) was 0.5 µg/mL, the MIC (K. Pneumoniae GMCH11) was 1 µg/mL and the MIC [3] was 1 µg/mL. It also gave an MIC (K. Pneumoniae 1573) of 1 µg/mL, an MIC (A. baumannii AB1) of 1 µg/mL and an MIC (E. coli 14504) of 1 µg/mL. It also gave an MIC (P. aeruginosa PA4) of 1 µg/mL, an IC50 [5, 17] of 125 µg/mL and an MIC [6] of 1 µg/mL. The MIC [7] was 8 µg/mL, the MIC [8] was 0.5 µg/mL and the MIC (K. Pneumoniae B8) was 1 µg/mL. It also gave an MIC (E. coli 14363) of 0.5 µg/mL, an MIC (A. baumannii GMCH 14) of 1 µg/mL and an MIC [9] of 1 µg/mL. The MIC (P. aeruginosa GMCH06) was 1 µg/mL, the MIC (E. coli 7210) was 1 µg/mL and the MIC [10] was 1 µg/mL. The MIC (P. aeruginosa PA3) was 2 µg/mL, the MIC (A. baumannii GMCH18) was 1 µg/mL and the MIC [11] was >16 µg/mL. For the same molecule, the MIC (P. aeruginosa PA2) was 2 µg/mL, the MIC (E. coli 3185) was 0.5 µg/mL and the MIC (P. aeruginosa PA6) was 2 µg/mL. The MIC [12] was 1 µg/mL, the MIC (P. aeruginosa PA5) was 2 µg/mL and the MIC (K. Pneumoniae GMCH 16) was 0.5 µg/mL. The MIC [13] was 16 µg/mL, the MIC (A. baumannii AB2) was 1 µg/mL and the MIC (A. baumannii GMCH05) was 1 µg/mL. The MIC [14] was 1 µg/mL, the MIC [15] was 1 µg/mL and the time to kill (P. aeruginosa ATCC 27853) was 2 h. It also gave an MIC (K. Pneumoniae GMCH12) of 1 µg/mL, an MIC (E. coli 7534) of 1 µg/mL and an MIC (E. coli 7932) of 1 µg/mL. For the same molecule, the MIC (K. Pneumoniae 1428) was 2 µg/mL and the MIC (K. Pneumoniae GMCH04) was 0.5 µg/mL.

In the case of “polymyxin E (colistin) [PE, reference compound]”, the MIC (K. Pneumoniae GMCH10; K. Pneumoniae GMCH10, MDR clinical isolate) is reported as 1 µg/mL, the MIC (E. coli 13425; E. coli 13425, MDR clinical isolate) is reported as 1 µg/mL and the MIC (K. Pneumoniae GMCH13; K. Pneumoniae GMCH13, MDR clinical isolate) is reported as 1 µg/mL. For the same molecule, the Kd [16] was 7.04 µM, the MIC (E. coli 9062; E. coli 9062, MDR clinical isolate) was 1 µg/mL and the MIC [1] was 1 µg/mL. It also gave an MIC (K. Pneumoniae 827; K. Pneumoniae 827, MDR clinical isolate) of 1 µg/mL, an MIC (P. aeruginosa PA1; P. aeruginosa PA1, MDR clinical isolate) of 2 µg/mL and an MIC [2] of 16 µg/mL. It also gave an MIC (E. coli 14084; E. coli 14084, MDR clinical isolate) of 0.5 µg/mL, an MIC (K. Pneumoniae GMCH11; K. Pneumoniae GMCH11, MDR clinical isolate) of 0.5 µg/mL and an MIC [3] of 1 µg/mL. It also gave an MIC (K. Pneumoniae 1573; K. Pneumoniae 1573, MDR clinical isolate) of 1 µg/mL, an MIC (A. baumannii AB1; A. baumannii AB1, MDR clinical isolate) of 1 µg/mL and an MIC (E. coli 14504; E. coli 14504, MDR clinical isolate) of 1 µg/mL. For the same molecule, the MIC (P. aeruginosa PA4; P. aeruginosa PA4, MDR clinical isolate) was 1 µg/mL, the IC50 ([4]; HEK293 cells, MTT, 62.5 to 1000 μg/ml) was “above 1000 μg/ml” and the IC50 [5, 17] was > 250 µg/mL. For the same molecule, the MIC [6] was 0.5 µg/mL, the MIC [7] was >16 µg/mL and the MIC [8] was 0.5 µg/mL. For the same molecule, the MIC (K. Pneumoniae B8; K. Pneumoniae B8, MDR clinical isolate) was 1 µg/mL, the MIC (E. coli 14363; E. coli 14363, MDR clinical isolate) was 0.5 µg/mL and the MIC (A. baumannii GMCH 14; A. baumannii GMCH 14, MDR clinical isolate) was 1 µg/mL. For the same molecule, the MIC [9] was 1 µg/mL, the MIC (P. aeruginosa GMCH06; P. aeruginosa GMCH06, MDR clinical isolate) was 1 µg/mL and the MIC (E. coli 7210; E. coli 7210, MDR clinical isolate) was 1 µg/mL. For the same molecule, the MIC [10] was 1 µg/mL, the MIC (P. aeruginosa PA3; P. aeruginosa PA3, MDR clinical isolate) was 2 µg/mL and the MIC (A. baumannii GMCH18; A. baumannii GMCH18, MDR clinical isolate) was 1 µg/mL. For the same molecule, the MIC [11] was >16 µg/mL, the MIC (P. aeruginosa PA2; P. aeruginosa PA2, MDR clinical isolate) was 2 µg/mL and the MIC (E. coli 3185; E. coli 3185, MDR clinical isolate) was 0.5 µg/mL. The MIC (P. aeruginosa PA6; P. aeruginosa PA6, MDR clinical isolate) was 2 µg/mL, the MIC [12] was 1 µg/mL and the MIC (P. aeruginosa PA5; P. aeruginosa PA5, MDR clinical isolate) was 2 µg/mL. For the same molecule, the MIC (K. Pneumoniae GMCH 16; K. Pneumoniae GMCH 16, MDR clinical isolate) was 1 µg/mL, the MIC [13] was >16 µg/mL and the MIC (A. baumannii AB2; A. baumannii AB2, MDR clinical isolate) was 1 µg/mL. The MIC (A. baumannii GMCH05; A. baumannii GMCH05, MDR clinical isolate) was 1 µg/mL, the MIC [14] was 0.5 µg/mL and the MIC [15] was 0.5 µg/mL. For the same molecule, the MIC (K. Pneumoniae GMCH12; K. Pneumoniae GMCH12, MDR clinical isolate) was 1 µg/mL, the MIC (E. coli 7534; E. coli 7534, MDR clinical isolate) was 0.5 µg/mL and the MIC (E. coli 7932; E. coli 7932, MDR clinical isolate) was 1 µg/mL. The MIC (K. Pneumoniae 1428; K. Pneumoniae 1428, MDR clinical isolate) was 2 µg/mL and the MIC (K. Pneumoniae GMCH04; K. Pneumoniae GMCH04, MDR clinical isolate) was 0.5 µg/mL.
